According to patent US7981907B2 (dated 2011):

| SMILES | melting point |
| --- | --- |
| CC(=O)c1ccc(-c2ccccc2C[S+]([O-])CC(N)=O)cc1 (stereo not drawn) | 155 to 160 °C |
| Cc1ccc(C[S+]([O-])CC(N)=O)cc1-c1ccccc1 (stereo not drawn) | 153 °C |
| Cc1noc(C)c1-c1cccc(C[S+]([O-])CC(N)=O)c1 (stereo not drawn) | 34 to 43 °C |
